# Experimental data reported in ChEMBL document CHEMBL1141913, “Novel 2-aminothiazonaphthalimides as visible light activatable photonucleases: effects of intercalation, heterocyclic-fused area and side chains” (Bioorg Med Chem Lett, 2005).
# Test system: Calf thymus DNA
# Experiment: Scatchard binding constant between calf thymus DNA (CT-DNA) measured in 30 mM Tris HCl buffer at pH 7.5
# Format: nucleic-acid assay
# Conditions: Bos taurus
row,Binding constant [M⁻¹],Structure (SMILES)
1,25600,CN(C)CCN1C(=O)c2cccc3cc4nc(N)sc4c(c23)C1=O
2,19800,CN(C)CCN1C(=O)c2cccc3c2c(cc2nc(N)sc23)C1=O
3,28700,CN(C)CCCN1C(=O)c2cccc3c2c(cc2nc(N)sc23)C1=O
4,47300,CN(C)CCCN1C(=O)c2cccc3cc4nc(N)sc4c(c23)C1=O
